The test system of one assay is MCF-10A cells. In words: MTT cell viability assay, MCF-10A. The format is cell-based, human. The following applies: Homo sapiens, MCF-10A, 72 h.
A further assay has as its system HeLa cells. The experiment in a line: MTT cell viability assay, HeLa. The format is cell-based. The following applies: Homo sapiens, 72 h. The method, then: Cell viability was assessed by using 3-(4,5-dimethylthiazol-2-y1)-2,5-diphenyltetrazolium bromide (MTT) assay (Sigma-Aldrich, Milan, Italy), as already reported. In brief, MCF-7 and HeLa cells (2 × 10^4 cells/well) were seeded in a 48-well plate and grown in complete medium overnight, then they were switched into DMEM-F12 supplemented with 2% FBS and treated with increasing concentrations (1, 10, 50, 75, and 100 µM) of different oxazolidin-2-ones derivatives (OA-OI) or doxorubicin for 72 h. Untreated cells were added with the vehicle (DMSO) and used as a control. After treatment, fresh MTT reagent (used at a final concentration of 0.5 mg/mL) was added, prolonging incubation for 2 h according to the manufacturer’s protocol. Absorbance at 570 nm was measured in each well, including controls, and every experiment was carried out in triplicate.
(§1) For each sample, mean absorbance was expressed as a percentage of the control and plotted vs. drug concentration, in order to determine the IC50 value (i.e., drug concentration able to decrease cell viability by 50% with respect to the control) for each cell line, generating a sigmoidal dose–response curve by the use of GraphPad Prism 7 software (GraphPad Inc., San Diego, CA, USA). Mean values and standard deviations (SD) of three independent experiments carried out in triplicate were reported. […]
A general note: Tetrazolium dyes change colour on reduction, which living cells bring about.

A further assay has as its system MCF-7 cells. In words: MTT cell viability assay, MCF-7. The format is cell-based. The following applies: Homo sapiens, MCF7, 72 h. The method, then:
Cell viability was assessed by using 3-(4,5-dimethylthiazol-2-y1)-2,5-diphenyltetrazolium bromide (MTT) assay (Sigma-Aldrich, Milan, Italy), as already reported. […] Untreated cells were added with the vehicle (DMSO) and used as a control. After treatment, fresh MTT reagent (used at a final concentration of 0.5 mg/mL) was added, prolonging incubation for 2 h according to the manufacturer’s protocol. Absorbance at 570 nm was measured in each well, including controls, and every experiment was carried out in triplicate.
as §1

On to `COc1cccc2c1C(=O)c1c(O)c3c(c(O)c1C2=O)C[C@@](O)(C(=O)CO)C[C@@H]3O[C@H]1C[C@H](N)[C@H](O)[C@H](C)O1` [DOX, doxorubicin, reference compound], for which the half-inhibitory concentration (IC50) with MCF-10A cells stood at 31.8 µM; in the assay on HeLa cells, 3.61 µM; in the assay on MCF-7 cells it was 4.04 µM.

With `CC1(C)/C(=C\C(=O)N2CCCCC2)OC(=O)N1Cc1ccccc1` [OA], the figures for the IC50 in the assay on MCF-10A cells, in the assay on HeLa cells and with MCF-7 cells were 414 µM, 52.5 µM and 56.9 µM, respectively.

`CC1(C)/C(=C/C(=O)N2CCCCC2)OC(=O)N1Cc1ccccc1` [OB]: the IC50 amounted to 470 µM with MCF-10A cells, 98.2 µM with HeLa cells and 122 µM with MCF-7 cells.

With `CCN(CC)C(=O)/C=C1\OC(=O)N(Cc2ccccc2)C1(C)C` [OC], the results for the half-maximal inhibitory concentration (IC50) with MCF-10A cells, in the assay on HeLa cells and in the assay with MCF-7 cells were 494 µM, 99.5 µM and 163 µM, respectively.

Regarding `CCCCN1C(=O)O/C(=C/C(=O)N2CCOCC2)C12CCCCC2` [OD], the IC50 was 506 µM with MCF-10A cells, 154 µM in the assay with HeLa cells and 338 µM in the assay with MCF-7 cells.

For the compound `CCCCN1C(=O)O/C(=C\C(=O)N2CCOCC2)C12CCCCC2` [OE], the IC50 with MCF-10A cells is 978 µM; with HeLa cells, 129 µM; with MCF-7 cells, 304 µM.

On to `CC1(C)/C(=C\C(=O)N2CCOCC2)OC(=O)N1Cc1ccccc1` [OF], for which the IC50 in the assay with MCF-10A cells came out at 718 µM; with HeLa cells, 159 µM; in the assay with MCF-7 cells, 409 µM.

For the compound `CC1(C)/C(=C/C(=O)N2CCOCC2)OC(=O)N1Cc1ccccc1` [OG], the results for the half-maximal inhibitory concentration (IC50) in the assay on MCF-10A cells, in the assay with HeLa cells and in the assay with MCF-7 cells were 677 µM, 134 µM and 345 µM, respectively.

For `CCCCN1C(=O)O/C(=C/C(=O)N2CCOCC2)C1(C)CC` (stereo not drawn) [OH], the IC50 in the assay with MCF-10A cells turned out to be 319 µM; with HeLa cells, 54.2 µM; in the assay on MCF-7 cells, 92.9 µM.

The IC50 is the concentration at which inhibition is half-maximal. A high value points to lower potency.

The values above are taken from publication PMC7168333, “5-(Carbamoylmethylene)-oxazolidin-2-ones as a Promising Class of Heterocycles Inducing Apoptosis Triggered by Increased ROS Levels and Mitochondrial Dysfunction in Breast and Cervical Cancer” (Biomedicines, 2020).
